Among the data in patent publication US4487924A, “2'-N-β-Lysyl) aminoglycosides” (Kowa Company, Ltd., priority 1982, dated 1984) are MIC values, retold here.

Molecules are shown by their SMILES. Values after ≈ are worked out from the molar mass of the structure shown. Like-named read-outs stand apart in the source and are kept apart here.

Test systems include E. coli R176 (AAC(3)-II); S. aureus 209P JC-1; B. subtilis ATCC 6633; E. cloacae IID 977; E. coli ML 1410; E. coli JR 88 (AAC(3)-I); P. putida IID 5121; S. faecalis Imanari; P. inconstans 93; P. aeruginosa NCTC 10490; E. coli NIHJ JC-2; P. cepacia 11D 1340; P. maltophilia IID 1275; P. vulgaris IID 874; S. marcescens NHL; K. pneumoniae PCI 602.
What all share (assay): Antibiotic activity (MIC), Table 1
Format in all cases: cell-based

In test [1] the test system is P. aeruginosa TI 13 (APH(3')-I).
The test system of test [2] is P. aeruginosa 99 (AAC(3)-I).
Test [3] has as its system P. aeruginosa GN315 (AAC(6')-IV).
Test [4] relates to P. aeruginosa RST-1 (AAC(3)-III).
Test [5] has as its system P. aerugionosa TK-157 (APH(3')-II).
Test [6] deals with P. inconstans GN1554 (AAC(2')).
Test [7] concerns K. pneumoniae 4687 (AAD(2")).
For test [8], the system named is E. coli ML 1410 R102 (AAD(2")). As to conditions: Escherichia coli.
Test [9] deals with E. coli ML 1410 R82 (AAD(3")). As to conditions: Escherichia coli.
Setting [10] is: Escherichia coli, read-out: MIC.
[11] abbreviates: Staphylococcus aureus, 209P, read-out: MIC.
The mark [12] stands for this setting: Bacillus subtilis, ATCC6633, B. subtilis ATCC 6633, read-out: MIC.
The mark [13] stands for this setting: Enterobacter cloacae, IID977, E. cloacae IID 977, read-out: MIC.
[14] abbreviates: Escherichia coli, ML1410, E. coli ML 1410, read-out: MIC.
Setting [15] is: Pseudomonas putida, IID5121, P. putida IID 5121, read-out: MIC.
The mark [16] stands for this setting: Pseudomonas aeruginosa, read-out: MIC.
Where [17] appears, read: Enterococcus faecalis, read-out: MIC.
The mark [18] stands for this setting: Pseudomonas aeruginosa, NCTC10490, P. aeruginosa NCTC 10490, read-out: MIC.
Setting [19] is: Pseudomonas aeruginosa, GN315, P. aeruginosa GN315 (AAC(6')-IV), read-out: MIC.
[20] abbreviates: Escherichia coli, NIHJJC2, E. coli NIHJ JC-2, read-out: MIC.
Where [21] appears, read: Burkholderia cepacia, 11D1340, read-out: MIC.
Where [22] appears, read: Stenotrophomonas maltophilia, IID1275, P. maltophilia IID 1275, read-out: MIC.
[23] abbreviates: Serratia marcescens, read-out: MIC.
Where [24] appears, read: Providencia alcalifaciens, GN1554, P. inconstans GN1554 (AAC(2')), read-out: MIC.
[25] abbreviates: Klebsiella pneumoniae, read-out: MIC.
[26] abbreviates: Klebsiella pneumoniae, PCI602, K. pneumoniae PCI 602, read-out: MIC.

With `CNC1C(O)CC(N)C(OC2OC(C(C)N)CCC2NC(=O)C[C@@H](N)CCCN)C1O` (stereo partly drawn) [2'-N-β-Lysyl 5-de-O-Me KA-6606II, 2'-N-(L-β-lysyl)-5-de-O-methyl-KA-6606II], the MIC in [1] is 50 µg/mL (≈ 112 µM); with E. coli R176 (AAC(3)-II) it was 6.25 µg/mL (≈ 14 µM); against S. aureus 209P JC-1, 0.78 µg/mL (≈ 1.75 µM); with B. subtilis ATCC 6633 (B. subtilis ATCC 6633), 3.13 µg/mL (≈ 7.01 µM); against E. cloacae IID 977 (E. cloacae IID 977), 12.5 µg/mL (≈ 28 µM); in the test on E. coli ML 1410 (E. coli ML 1410), 6.25 µg/mL (≈ 14 µM). In addition, the MIC was 12.5 µg/mL (≈ 28 µM) against E. coli JR 88 (AAC(3)-I); 25 µg/mL (≈ 56 µM) in the test with P. putida IID 5121 (P. putida IID 5121); greater than 100 µg/mL in test [2]; 3.13 µg/mL (≈ 7.01 µM) against S. faecalis Imanari; 1.56 µg/mL (≈ 3.49 µM) in the test with P. inconstans 93 (P. inconstans 93); 25 µg/mL (≈ 56 µM) in the test with P. aeruginosa NCTC 10490 (P. aeruginosa NCTC 10490). The minimal inhibitory concentration (MIC) in test [3] (P. aeruginosa GN315 (AAC(6')-IV)) was greater than 100 µg/mL; with E. coli NIHJ JC-2 (E. coli NIHJ JC-2) it was 3.13 µg/mL (≈ 7.01 µM); against P. cepacia 11D 1340, greater than 100 µg/mL; in test [4], 100 µg/mL (≈ 224 µM); in the test on P. maltophilia IID 1275 (P. maltophilia IID 1275), 1.56 µg/mL (≈ 3.49 µM); in the test with P. vulgaris IID 874 (P. vulgaris IID 874), 25 µg/mL (≈ 56 µM). Besides, the MIC came to 50 µg/mL (≈ 112 µM) in test [5]; 3.13 µg/mL (≈ 7.01 µM) against S. marcescens NHL; 1.56 µg/mL (≈ 3.49 µM) in test [6] (P. inconstans GN1554 (AAC(2'))); 12.5 µg/mL (≈ 28 µM) in test [7]; 0.78 µg/mL (≈ 1.75 µM) against K. pneumoniae PCI 602 (K. pneumoniae PCI 602).

For `CNC1C(O)CC(N)C(OC2OC(C(C)N)CCC2NC(=O)C[C@@H](N)CCCN)C1O` (stereo partly drawn) [2'-N-β-Lysyl 5-de-O-Me KA-6606VIII, 2'-N-(L-β-lysyl)-5-de-O-methyl-KA-6606VIII], the MIC in test [1] (Pseudomonas aeruginosa) was determined as 50 µg/mL (≈ 112 µM); with E. coli R176 (AAC(3)-II) (setting [10]) it was 6.25 µg/mL (≈ 14 µM); with S. aureus 209P JC-1 (setting [11]), 0.78 µg/mL (≈ 1.75 µM); in the test with B. subtilis ATCC 6633 (setting [12]), 3.13 µg/mL (≈ 7.01 µM); with E. cloacae IID 977 (setting [13]), 25 µg/mL (≈ 56 µM); with E. coli ML 1410 (setting [14]), 6.25 µg/mL (≈ 14 µM). For the same compound, the MIC was 6.25 µg/mL (≈ 14 µM) in the test on E. coli JR 88 (AAC(3)-I) (setting [10]); 12.5 µg/mL (≈ 28 µM) with P. putida IID 5121 (setting [15]); greater than 100 µg/mL in [2] (setting [16]); 3.13 µg/mL (≈ 7.01 µM) in the test with S. faecalis Imanari (setting [17]); 3.13 µg/mL (≈ 7.01 µM) with P. inconstans 93 (P. inconstans 93); 50 µg/mL (≈ 112 µM) in the test with P. aeruginosa NCTC 10490 (setting [18]). The minimal inhibitory concentration (MIC) in test [3] (setting [19]) was greater than 100 µg/mL; in the test with E. coli NIHJ JC-2 (setting [20]), 6.25 µg/mL (≈ 14 µM); with P. cepacia 11D 1340 (setting [21]), greater than 100 µg/mL; in test [4] (setting [16]), greater than 100 µg/mL; with P. maltophilia IID 1275 (setting [22]), 1.56 µg/mL (≈ 3.49 µM); in the test with P. vulgaris IID 874 (P. vulgaris IID 874), 100 µg/mL (≈ 224 µM). Also, the MIC in test [5] (read-out: MIC) amounted to 50 µg/mL (≈ 112 µM); in the test with S. marcescens NHL (setting [23]), 6.25 µg/mL (≈ 14 µM); in test [6] (setting [24]) it was 1.56 µg/mL (≈ 3.49 µM); in test [7] (setting [25]), 12.5 µg/mL (≈ 28 µM); in the test on K. pneumoniae PCI 602 (setting [26]) it was 0.78 µg/mL (≈ 1.75 µM).

Regarding `CNC1C(OC)CC(N)C(OC2OC(C(C)N)CCC2NC(=O)C[C@@H](N)CCCN)C1O` (stereo partly drawn) [2'-N-β-Lysyl KA-6606VIII, 2'-N-(L-β-lysyl)-KA-6606VIII], the MIC in test [1] (Pseudomonas aeruginosa) is 25 µg/mL (≈ 54.3 µM); with E. coli R176 (AAC(3)-II) (setting [10]), 0.78 µg/mL (≈ 1.69 µM); in the test with S. aureus 209P JC-1 (setting [11]), 0.39 µg/mL (≈ 0.847 µM); in the test on B. subtilis ATCC 6633 (setting [12]), 3.13 µg/mL (≈ 6.8 µM); with E. cloacae IID 977 (setting [13]), 3.13 µg/mL (≈ 6.8 µM); with E. coli ML 1410 (setting [14]) it was 0.78 µg/mL (≈ 1.69 µM). For the same compound, the MIC with E. coli JR 88 (AAC(3)-I) (setting [10]) came out at 0.78 µg/mL (≈ 1.69 µM); with P. putida IID 5121 (setting [15]) it was 3.13 µg/mL (≈ 6.8 µM); in [2] (setting [16]), 50 µg/mL (≈ 109 µM); in the test with S. faecalis Imanari (setting [17]), 1.56 µg/mL (≈ 3.39 µM); in the test with P. inconstans 93 (Providencia alcalifaciens, 93, P. inconstans 93, read-out: MIC), 0.39 µg/mL (≈ 0.847 µM); in the test with P. aeruginosa NCTC 10490 (setting [18]), 6.25 µg/mL (≈ 13.6 µM). Moreover, the MIC in test [3] (setting [19]) is 25 µg/mL (≈ 54.3 µM); in the test with E. coli NIHJ JC-2 (setting [20]), 1.56 µg/mL (≈ 3.39 µM); with P. cepacia 11D 1340 (setting [21]), greater than 100 µg/mL; in test [4] (setting [16]), 100 µg/mL (≈ 217 µM); with P. maltophilia IID 1275 (setting [22]), 1.56 µg/mL (≈ 3.39 µM); in test [8] it was 0.39 µg/mL (≈ 0.847 µM). Further, the MIC in the test with P. vulgaris IID 874 (Proteus vulgaris, IID874, P. vulgaris IID 874, read-out: MIC) is 12.5 µg/mL (≈ 27.1 µM); in test [5] (read-out: MIC), 25 µg/mL (≈ 54.3 µM); in test [9], 0.39 µg/mL (≈ 0.847 µM); in the test with S. marcescens NHL (setting [23]), 0.2 µg/mL (≈ 0.434 µM); in test [6] (setting [24]) it was 0.2 µg/mL (≈ 0.434 µM); in test [7] (setting [25]), 0.78 µg/mL (≈ 1.69 µM). The MIC in the test with K. pneumoniae PCI 602 (setting [26]) was 0.78 µg/mL (≈ 1.69 µM).

As a reminder, the MIC is the smallest concentration in the dilution series that meets the test's criterion for growth inhibition.
